{"source": "paper PMC12752627", "about": "“Discovery of a Potent and Selective TEAD Degrader with Durable Degradation Activity” (Advanced Science, 2025)", "key": {"KLE cells": {"system": "KLE cells", "assay": "Cell viability assay (CTG, 72 h) KLE", "format": "cell-based", "settings": "Homo sapiens, KLE, 72 h, 3-day compound treatment", "description": "Cells were seeded at a density of 1000 cells per well in 96‐well flat‐bottomed cell culture plates and cultured overnight at 37 °C with 5% CO2 to allow for cell attachment. The following day, different concentrations of compounds were added using an I‐DOT dispenser. After 72 h, 25 µL of CellTiter‐Meiluncell Luminescent Cell Viability Reagent (Meilunbio, #PWL111‐2) was added and incubated for 15 min at room temperature. Luminescence signals were then measured using an Envision plate reader (Revvity). Data were analyzed using GraphPad Prism 9.5 software.^[ [30] ^]"}, "[1]": {"assay": "7-day toxicological study in MSTO-211H tumor-bearing mice", "format": "in vivo", "settings": "10 or 30 mg/kg i.p. daily, 7 days", "description": "A toxicological evaluation was conducted using an MSTO‐211H xenograft mouse model. All animal studies were carried out in accordance with protocols approved by the Institutional Animal Care and Use Committees of Tongji University and the Chinese Academy of Sciences, and in compliance with national, institutional and local regulations. These experiments were conducted in specific‐pathogen‐free (SPF) and Helicobacter‐free facilities at both institutions. After 7 consecutive days of drug administration (10 mg kg^−1 or 30 mg kg^−1, i.p., q.d.), whole blood and major organs—including the heart, liver, spleen, lungs, and kidneys—were collected for analysis. Blood samples were anticoagulated with EDTA (1.5 mg mL^−1), gently mixed, and subjected to standard hematological assessment. Tissue samples were processed for both paraffin‐embedded and frozen section analysis. Paraffin embedding involved fixation, graded dehydration, clearing, embedding, sectioning at 4 µm, and dewaxing to water. Frozen sections were prepared by embedding tissues in OCT compound, sectioning at −20 °C with a thickness of 8 µm, followed by acetone fixation and rinsing with PBS. […] Microscopic examinations and image acquisition were carried out, and quantitative analyses were performed using specialized image analysis software. […]"}, "BMF, CTGF expression": {"system": "BMF, CTGF expression", "assay": "RT-qPCR in MSTO-211H cells", "format": "cell-based", "description": "Cells were seeded in 6‐well plates at a density of 1 million cells per well. The following day, different concentrations of compounds were added, and cells were collected after 24 h. For wash‐out experiments, cells were pre‐treated with compounds at indicated concentrations for 6 h, then cells were washed three times with PBS, and an equal volume of complete medium without compounds was added and incubated for another 18 h.\nRNA was isolated and purified from the samples using the EZ‐10 Rotary Column Total RNA Isolation Kit (Sangon Biotech, B615012). After measuring the RNA concentration, 200 ng of purified RNA was used for genomic DNA removal and reverse transcription to cDNA with the HiScript III 1st Strand cDNA Synthesis Kit (+DNA wiper) (Vazyme, R312‐02). The resulting cDNA was then prepared into a reaction mix according to the ChamQ SYBR qPCR Mix (Vazyme, #q711‐02). Real‐time PCR analysis was performed using a QuantStudio 6 Pro real‐time PCR system (Thermo Fisher Scientific). Relative gene expression was calculated using the 2‐∆∆CT method. The primers used in this study were provided in the Supporting Information (Table S1, Supporting Information)"}, "TEAD1 [2]": {"biological_target": "T1, TEAD1 (Homo sapiens, UniProt P28347)", "assay": "HiBiT degradation assay, HEK293T HiBiT-TEAD1", "format": "cell-based", "parameters": "endogenous in cells; host or cells: HEK293T wild-type and CRBN-knockout", "settings": "6 h", "description": "HiBiT cells were inoculated into 96‐well flat‐bottomed tissue culture plates at a density of 50 000 cells per well, followed by adding degraders into the wells using the I‐DOT dispenser. After 6 h of incubation, the cells were lysed and assayed for degradation using the Nano‐Glo HiBiT Lysis Assay System (Promega, #N3030). Luminescence signals were read using an Envision plate reader (Revvity) and the data were analyzed using GraphPad Prism 9.5 software.\nThe ribonucleoprotein (RNP) complex was prepared by mixing 2 µg of NLS‐Cas9‐EGFP nuclease (Novoprotein, #E379‐01A), 50 pmol of sgRNA, 10 µL of electrotransfer solution, and 50 pmol of designed donor DNA, then incubated for 10 min at room temperature. One million HEK293T cells were resuspended in 10 µL of electrotransfection solution and mixed with 10 µL of the RNP complex. Electroporation was performed using a Celetrix SP100 electroporator at 480 V. After electroporation, the cells were transferred to antibiotic‐free DMEM complete medium for overnight culture. The following day, EGFP‐positive cells were sorted using a Sony MA 900 cell sorter, plated in a 96‐well cell culture plate (Servicebio, #CCP‐96H), and cultured for 4 weeks. After this period, positive clones were screened using the Nano‐Glo HiBiT Lytic Detection system (Promega, #N3030)."}, "TEAD1 [3]": {"biological_target": "T1, TEAD1", "assay": "Immunoblot of TEAD1 degradation in TEAD1-mNeonGreen fusion NCI-H1299 cells", "format": "cell-based", "parameters": "endogenous in cells; host or cells: NCI-H1299 (TEAD1-mNeonGreen knock-in)", "settings": "100 nM, TEAD1-mNeonGreen fusion NCI-H1299 cells", "description": "Immunoblotting was carried out as previously described.^[ [29] ^] Cells were seeded in 6‐well plates (Yeasen, #84011ES50) at a density of 1 million cells per well. The following day, cells were treated with compounds at the required concentrations, with the DMSO concentration kept below 0.4‰ to prevent toxic effects on the cells. The collected cell pellets were washed three times with PBS (Meilunbio, #MA0015) and resuspended in 120 µL of RIPA lysis buffer (Meilunbio, #MA0151) containing 1% protease inhibitor (Meilunbio, #MB2678‐2). The cells were then sonicated on ice and centrifuged at 12 000 rpm for 15 min at 4 °C to remove cellular debris. Protein concentrations were determined using the BCA Protein Quantification Kit (Meilunbio, #MA0082‐1). The protein samples were normalized, boiled at 99 °C for 10 min, and then subjected to electrophoresis on a 10% SDS‐PAGE gel. The separated protein bands were transferred to nitrocellulose membranes, blocked with TBST containing 5% BSA, and incubated with the indicated primary antibodies. Finally, the blots were imaged using an Amersham Typhoon NIR imager."}}}
{"smiles": "CNC(=O)c1cc2c(c(F)c1-c1c(Cl)c(F)cc3c1C[C@@](CN[C@H]1CC[C@H](C(=O)N4CCC(CC5CCN(C(=O)COc6ccc(N7CCC(=O)NC7=O)c(C)c6)CC5)CC4)CC1)(c1ccccc1)O3)[C@@H](O)[C@@H](C)C2", "note": "[KG-FP-003]", "values": [{"measurement": "IC50", "setting": "KLE cells", "value": "0.059 ± 0.034", "unit": "µM"}, {"measurement": "Hematological analyses", "setting": "[1]", "value": "no significant deviations from baseline"}, {"measurement": "Histopathological examination of heart, liver, spleen, lungs, kidneys", "setting": "[1]", "value": "no structural abnormalities or pathological lesions"}, {"measurement": "Expression of TEAD target gene CTGF (qPCR)", "setting": "BMF, CTGF expression", "value": "downregulation"}, {"measurement": "Expression of pro-apoptotic gene BMF (qPCR)", "setting": "BMF, CTGF expression", "value": "dramatic upregulation"}, {"measurement": "DC50", "setting": "TEAD1 [2]", "value": "0.006 ± 0.004", "unit": "µM"}, {"measurement": "TEAD1 Dmax", "setting": "TEAD1 [2]", "value": "≈ 90%"}, {"measurement": "Dmax", "setting": "TEAD1 [2]; HEK-293T", "value": "93 ± 1", "unit": "%"}, {"measurement": "Duration of sustained TEAD1 degradation", "setting": "TEAD1 [3]", "value": "up to 12 days"}]}
